Source: patent US7951815B2, “Substituted 1,4,8-triazaspiro [4,5]decan-2-one compounds” (Gruenenthal GmbH, priority 2004, dated 2011)
Where two headings read alike, the source gives them in different places.

Tests used:
[1] = test system: batrachotoxin (BTX) binding site of the sodium channel; test: Affinity to the batrachotoxin (BTX) binding site of the sodium channel; details: rat cerebrocortex synaptosomes, test concentration not given
[2] = biological target: T1, 5-HT transporter (Rattus norvegicus, UniProt P31652); test: Inhibition of 5-HT uptake in rat brain synaptosomes; format: biochemical; details: rat, 1 μM; for inhibition at 1 µM: read-out: Uptake 5-HT, % inhibition
T1 construct: synaptosomes of rat brain areas are freshly isolated; from tissue; host or cells: rat brain synaptosomes (P2 fraction) from marrow and pons
T1 sequence (P31652 whole entry): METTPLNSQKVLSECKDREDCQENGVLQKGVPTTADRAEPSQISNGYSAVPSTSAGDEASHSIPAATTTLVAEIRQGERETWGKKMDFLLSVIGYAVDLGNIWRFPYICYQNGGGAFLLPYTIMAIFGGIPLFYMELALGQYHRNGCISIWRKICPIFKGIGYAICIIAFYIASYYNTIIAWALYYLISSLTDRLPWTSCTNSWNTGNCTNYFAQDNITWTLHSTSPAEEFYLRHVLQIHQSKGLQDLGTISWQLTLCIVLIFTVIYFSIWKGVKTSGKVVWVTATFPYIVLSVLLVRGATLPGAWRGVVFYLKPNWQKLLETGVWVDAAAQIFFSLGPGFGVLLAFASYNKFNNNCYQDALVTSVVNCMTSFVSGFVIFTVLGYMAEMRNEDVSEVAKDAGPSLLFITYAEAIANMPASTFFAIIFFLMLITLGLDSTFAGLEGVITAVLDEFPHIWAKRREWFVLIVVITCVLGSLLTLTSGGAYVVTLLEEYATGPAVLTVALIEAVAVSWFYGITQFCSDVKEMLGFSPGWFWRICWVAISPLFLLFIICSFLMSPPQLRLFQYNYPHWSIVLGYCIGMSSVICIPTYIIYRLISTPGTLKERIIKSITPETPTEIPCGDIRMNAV

Compound: CCSc1ncccc1C(=O)N1CCC2(CC1)NC(CC(C)C)C(=O)N2CCCCOC(C)=O (centres unmarked) [Example 257, Butyl 4-[8-(2-ethylsulfanylpyridin-3-carbonyl)-3-isobutyl-2-oxo-1,4,8-triazaspiro[4,5]dec-1-yl]acetate]
- BTX inhibition ([1]; Table III): 35
- Uptake 5-HT, rat, 1 μM, % inhibition ([2]; Table III): 59%

Compound: CCOC(=O)CN1C(=O)C(Cc2ccccc2)NC12CCN(C(=O)C1CC1)CC2 (centres unmarked) [Example 293, Ethyl (3-benzyl-8-cyclopropanecarbonyl-2-oxo-1,4,8-triazaspiro[4,5]dec-1-yl)acetate]
- BTX inhibition ([1]; Table III): 31
- inhibition at 1 µM ([2]; Table III): 55%

Compound: CCSc1ncccc1C(=O)N1CCC2(CC1)NC(Cc1ccccc1)C(=O)N2Cc1ccccc1 (centres unmarked) [Example 145, 1,3-Dibenzyl-8-(2-ethylsulfanylpyridin-3-carbonyl)-1,4,8-triazaspiro[4,5]decan-2-one]
- BTX inhibition ([1]; Table III): 64
- inhibition at 1 µM ([2]; Table III): 89%

Compound: COc1ccc(CC(=O)N2CCC3(CC2)NC(Cc2ccccc2)C(=O)N3C)cc1 (centres unmarked) [Example 176, 3-Benzyl-8-[2-(4-methoxyphenyl)acetyl]-1-methyl-1,4,8-triazaspiro[4,5]decan-2-one]
- BTX inhibition ([1]; Table III): 30
- inhibition at 1 µM ([2]; Table III): 37%

Compound: CCCCN1C(=O)C(CCSC)NC12CCN(C(=O)C1COc3ccc(Cl)cc3C1)CC2 (centres unmarked) [Example 150, 1-Butyl-8-(6-Chloro-2H-chroman-3-carbonyl)-3-(2-methylsulfanylethyl)-1,4,8-triazaspiro[4,5]decan-2-one]
- BTX inhibition ([1]; Table III): 56
- Uptake 5-HT, rat, 1 μM, % inhibition ([2]; Table III): 72%

Compound: Cl.O=C(c1ccc(F)cc1)N1CCC2(CC1)N[C@@H](Cc1ccccc1)C(=O)N2Cc1ccccc1 [Example 62, 1,3-(S)-dibenzyl-8-(4-fluorobenzoyl)-1,4,8-triazaspiro[4,5]decan-2-one hydrochloride]
- BTX inhibition ([1]; Table II): 48
- inhibition at 1 µM ([2]; Table II): 87%

Compound: Cc1nc(C(F)(F)F)ccc1C(=O)N1CCC2(CC1)NC(C(C)C)C(=O)N2CCOc1ccccc1 (centres unmarked) [Example 167, 3-Isopropyl-8-(2-methyl-6-trifluoromethylpyridin-3-carbonyl)-1-(2-phenoxyethyl)-1,4,8-triazaspiro[4,5]decan-2-one]
- BTX inhibition ([1]; Table III): 38
- inhibition at 1 µM ([2]; Table III): 52%

Compound: CCCCN1C(=O)C(Cc2ccccc2)NC12CCN(C(=O)c1cc(C(C)(C)C)nn1C)CC2 (centres unmarked) [Example 249, 3-Benzyl-1-butyl-8-(5-tert-butyl-2-methyl-2H-pyrazole-3-carbonyl)-1,4,8-triazaspiro[4,5]decan-2-one]
- BTX inhibition ([1]; Table III): 34
- inhibition at 1 µM ([2]; Table III): 55%

Compound: CCC(CC)C(=O)N1CCC2(CC1)N[C@@H](Cc1ccccc1)C(=O)N2Cc1ccc(OC)cc1.Cl (racemic) [Example 30, 3-(S,R)-benzyl-8-(2-ethylbutyryl)-1-(4-methoxybenzyl)-1,4,8-triazaspiro[4,5]decan-2-one hydrochloride]
- BTX inhibition ([1]; Table II): 35
- Uptake 5-HT, rat, 1 μM, % inhibition ([2]; Table II): 42%

Compound: CC(C)(C)CC(=O)N1CCC2(CC1)NC(Cc1ccccc1)C(=O)N2Cc1ccccc1 (centres unmarked) [Example 230, 1,3-Dibenzyl-8-(3,3-dimethylbutyryl)-1,4,8-triazaspiro[4,5]decan-2-one]
- BTX inhibition ([1]; Table III): 30
- inhibition at 1 µM ([2]; Table III): 72%

Compound: C=CCN1C(=O)C(CCSC)NC12CCN(C(=O)c1cnn(-c3ccccc3)c1CCC)CC2 (centres unmarked) [Example 323, 1-Allyl-3-(2-methylsulfanylethyl)-8-(1-phenyl-5-propyl-1H-pyrazole-4-carbonyl)-1,4,8-triazaspiro[4,5]decan-2-one]
- BTX inhibition ([1]; Table III): 43
- inhibition at 1 µM ([2]; Table III): 33%

Compound: CC(C)CC1NC2(CCN(C(=O)c3cc(C(C)(C)C)nn3C)CC2)N(Cc2cccc(C#N)c2)C1=O (centres unmarked) [Example 218, 3-[8-(5-tert-Butyl-2-methyl-2H-pyrazole-3-carbonyl)-3-isobutyl-2-oxo-1,4,8-triazaspiro[4,5]dec-1-ylmethyl]benzonitrile]
- BTX inhibition ([1]; Table III): 39
- inhibition at 1 µM ([2]; Table III): 57%

Compound: CCCCN1C(=O)C(Cc2ccccc2)NC12CCN(C(=O)c1ccc(I)cc1)CC2 (centres unmarked) [Example 207, 3-Benzyl-1-butyl-8-(4-Iodobenzoyl)-1,4,8-triazaspiro[4,5]decan-2-one]
- BTX inhibition ([1]; Table III): 57
- inhibition at 1 µM ([2]; Table III): 76%
